Measured values from patent US6448252B1, “Treatment of equine protozoal myeloencephalitis” (IDEXX Pharmaceuticals, Inc., priority 1996, dated 2002).

Key:
[1] = horses, oral, 1 mg pyrimethamine/kg once a day for 10 days; cited from earlier work
[2] = system: Sarcocystis neurona; details: EPM in equines; sulfadiazine as the sulfonamide given with pyrimethamine
Description: The amounts of each component are based on a liquid suspension having a total volume of about 1 liter. As mentioned above, a useful dosage, e.g., for a 1,000 pound horse infected with Sarcocystis neurona (as evidenced by the presence of the protozoan in a sample from the subject's cerebrospinal fluid) is about 30 mL of the suspension, once a day, given on an empty stomach in the morning.

[3] = system: Plasmodium berghei yoelii; details: rodent malaria; cited from earlier work

| Compound | toxicological problem [1] | rate of efficacy [2] [%] | causal prophylactic activity [3] |
| --- | --- | --- | --- |
| CCc1nc(N)nc(N)c1-c1ccc(Cl)cc1 [pyrimethamine] | does not present a serious toxicological problem |  |  |
| Nc1ccc(S(=O)(=O)Nc2ncccn2)cc1 [sulfadiazine] |  | > 70 | causal prophylactic activity |
| COc1cc(NC(C)CCCN)c2ncccc2c1 (stereo not shown) [Primaquine diphosphate] |  |  | causal prophylactic activity |
